Tests used:
Type in all cases: cell-based
HuH-7 cells = assay: Anti-proliferative toxicity of C63 in tumor cell lines (CCK8): HuH-7; details: Homo sapiens, 72 h, 3 days, read-out: Inhibition rate
Description: (§1) Example 83: Detection of Anti-Proliferative Toxicity of C63 in Some Tumor Cell Lines
HuH-7 cells (purchased from the Cell Bank of the Chinese Academy of Sciences, Cat. No. SCSP-526) were subcultured in a culture medium (DMEM medium+[…] penicillin-streptomycin dual-antibiotic solution+10% fetal bovine serum) in an incubator at […] and 37° C.
HuH-7 cells were seeded at 5000 cells/well (90 μL) on a 96-well plate and cultured for 24 h.
(§2) 10 mM compound stock solutions were prepared in DMSO.
(§3) The compound stock solution was diluted with DMSO to give DMSO solutions 1-9 at concentrations of 0 μM, 2500 μM, 500 μM, 100 μM, 20 μM, 4 μM, 0.8 μM, 0.16 μM, and 0.032 μM.
(§4) 2 μL of each of solutions 1-9 was added to 98 μL of the medium to give mixed solutions 11-19 of the compound and the medium.
(§5) 10 μL of each of solutions 11-19 was added to the above cell seed solution to give a total volume of 100 μL (90 μL+10 μL).
(§6) The concentrations of the compound in the wells were 0 μM, 5.0 μM, 1.0 μM, 0.2 μM, 0.04 μM, 0.008 μM, 0.0016 μM, 0.00032 μM, and 0.000064 μM. All concentrations were in triplicate.
(§7) After the above-treated cells were cultured for 3 days, 10 μL of the CCK8 solution (DOJINDO, Cat. No. PF725) was added to each well. The plate was incubated in an incubator at 37° C. for 1-4 h and then detected on a microplate reader for the reading at 450 nm.

MDA-MB-468 cells = assay: Anti-proliferative toxicity of C63 in tumor cell lines (CCK8): MDA-MB-468; details: Homo sapiens, 72 h, 3 days, read-out: Inhibition rate
Description: as §1
MDA-MB-468 cells (purchased from the Cell Bank of the Chinese Academy of Sciences, Cat. No. TCHu136) were subcultured in a culture medium (L15 medium+1% penicillin-streptomycin dual-antibiotic solution+10% fetal bovine serum) in an incubator at 37° C.
MDA-MB-468 cells were seeded at 5000 cells/well (90 μL) on a 96-well plate and cultured for 24 h.
as §2, §3, §4, §5, §6, §7

BT-549 cells = assay: Anti-proliferative toxicity of C63 in tumor cell lines (CCK8): BT-549; details: Homo sapiens, 72 h, 3 days, read-out: Inhibition rate
Description: as §1
BT-549 cells (purchased from the Cell Bank of the Chinese Academy of Sciences, Cat. No. TCHu93) were subcultured in a culture medium (RPMI-1640 medium+1% penicillin-streptomycin dual-antibiotic solution++10% fetal bovine serum+0.01 mg/mL recombinant human insulin) in an incubator at 5% carbon dioxide and 37° C.
BT-549 cells were seeded at 5000 cells/well (90 μL) on a 96-well plate and cultured for 24 h.
as §2, §3, §4, §5, §6, §7

U251 cells = assay: Anti-proliferative toxicity of C63 in tumor cell lines (CCK8): U251; details: Homo sapiens, U-251, 72 h, 3 days, read-out: Inhibition rate
Description: as §1
U251 cells (purchased from the Cell Bank of the Chinese Academy of Sciences, Cat. No. TCHu58) were subcultured in a culture medium (DMEM medium+1% penicillin-streptomycin dual-antibiotic solution+10% fetal bovine serum) in an incubator at 5% carbon dioxide and 37° C.
U251 cells were seeded at 2000 cells/well (90 μL) on a 96-well plate and cultured for 24 h.
as §2, §3, §4, §5, §6, §7

KATO III cells = assay: Anti-proliferative toxicity of C63 in tumor cell lines (CCK8): KATO III; details: Homo sapiens, 72 h, 3 days, read-out: Inhibition rate
Description: as §1
KATOIII cells (purchased from the Cell Bank of the Chinese Academy of Sciences, Cat. No. TCHu229) were subcultured in a culture medium (IMDM medium+1% penicillin-streptomycin dual-antibiotic solution+10% fetal bovine serum) in an incubator at 5% carbon dioxide and 37° C.
KATO III cells were seeded at 8000 cells/well (90 μL) on a 96-well plate and cultured for 24 h.
as §2, §3, §4, §5, §6, §7

Hep G2 cells = assay: Anti-proliferative toxicity of C63 in tumor cell lines (CCK8): Hep G2; details: Homo sapiens, HepG2, 72 h, 3 days, read-out: Inhibition rate
Description: as §1
HepG2 cells (purchased from the Cell Bank of the Chinese Academy of Sciences, Cat. No. TCHu72) were subcultured in a culture medium (MEM medium+1% penicillin-streptomycin dual-antibiotic solution+10% fetal bovine serum) in an incubator at 5% carbon dioxide and 37° C.
Hep G2 cells were seeded at 2000 cells/well (90 μL) on a 96-well plate and cultured for 24 h.
as §2, §3, §4, §5, §6, §7

Hep 3B2.1-7 cells = assay: Anti-proliferative toxicity of C63 in tumor cell lines (CCK8): Hep 3B2.1-7; details: Homo sapiens, 72 h, 3 days, read-out: Inhibition rate
Description: as §1
Hep3B2.1-7 cells (purchased from the Cell Bank of the Chinese Academy of Sciences, Cat. No. TCHu106) were subcultured in a culture medium (MEM medium+1% penicillin-streptomycin dual-antibiotic solution+10% fetal bovine serum) in an incubator at 5% carbon dioxide and 37° C.
Hep 3B2.1-7 cells were seeded at 2000 cells/well (90 μL) on a 96-well plate and cultured for 24 h.
as §2, §3, §4, §5, §6, §7

Structure (SMILES): C[C@]12C=CC(=O)N[C@@H]1CC[C@@H]1[C@@H]2CC[C@]2(C)[C@@H](C(=O)Nc3cccc(N[C@@H]4CCC[C@@H](Nc5cccc6c5C(=O)N([C@H]5CCC(=O)NC5=O)C6=O)C4)c3)CC[C@@H]12 [C63, N-(3-(N—(N-(4-(2-(3S-(2,6-dioxopiperidine))-isoindole-1,3-dione))-1R,3R-cyclohexanediamine))phenyl)-3-oxo-4-aza-5α-androst-1-ene-17β-carboxamide]
- inhibition at 64 pM (HuH-7 cells; 0.000064 μM): 13.1%
- inhibition at 0.00032 µM (HuH-7 cells; 0.000320 μM): 59.9%
- inhibition at 0.0016 µM (HuH-7 cells; 0.001600 μM): 77.1%
- inhibition at 0.008 µM (HuH-7 cells; 0.008000 μM): 79.3%
- inhibition at 0.04 µM (HuH-7 cells; 0.040000 μM): 78.3%
- inhibition at 0.2 µM (HuH-7 cells; 0.200000 μM): 78.3%
- inhibition at 1 µM (HuH-7 cells; 1.000000 μM): 75.1%
- inhibition at 5 µM (HuH-7 cells; 5.000000 μM): 73.1%
- inhibition at 64 pM (MDA-MB-468 cells; 0.000064 μM): 4.42%
- inhibition at 0.00032 µM (MDA-MB-468 cells; 0.000320 μM): 30.5%
- inhibition at 0.0016 µM (MDA-MB-468 cells; 0.001600 μM): 55.1%
- inhibition at 0.008 µM (MDA-MB-468 cells; 0.008000 μM): 64.6%
- inhibition at 0.04 µM (MDA-MB-468 cells; 0.040000 μM): 65%
- inhibition at 0.2 µM (MDA-MB-468 cells; 0.200000 μM): 65.5%
- inhibition at 1 µM (MDA-MB-468 cells; 1.000000 μM): 70.2%
- inhibition at 5 µM (MDA-MB-468 cells; 5.000000 μM): 74%
- inhibition at 64 pM (BT-549 cells; 0.000064 μM): 29.3%
- inhibition at 0.00032 µM (BT-549 cells; 0.000320 μM): 28%
- inhibition at 0.0016 µM (BT-549 cells; 0.001600 μM): 77.5%
- inhibition at 0.008 µM (BT-549 cells; 0.008000 μM): 84.3%
- inhibition at 0.04 µM (BT-549 cells; 0.040000 μM): 84.6%
- inhibition at 0.2 µM (BT-549 cells; 0.200000 μM): 85.6%
- inhibition at 1 µM (BT-549 cells; 1.000000 μM): 84.3%
- inhibition at 5 µM (BT-549 cells; 5.000000 μM): 87.5%
- inhibition at 64 pM (U251 cells; 0.000064 μM): 22%
- inhibition at 0.00032 µM (U251 cells; 0.000320 μM): 21.7%
- inhibition at 0.0016 µM (U251 cells; 0.001600 μM): 53.4%
- inhibition at 0.008 µM (U251 cells; 0.008000 μM): 67.8%
- inhibition at 0.04 µM (U251 cells; 0.040000 μM): 69%
- inhibition at 0.2 µM (U251 cells; 0.200000 μM): 71.7%
- inhibition at 1 µM (U251 cells; 1.000000 μM): 72.2%
- inhibition at 5 µM (U251 cells; 5.000000 μM): 72.2%
- inhibition at 64 pM (KATO III cells; 0.000064 μM): 1.09%
- inhibition at 0.00032 µM (KATO III cells; 0.000320 μM): 2.17%
- inhibition at 0.0016 µM (KATO III cells; 0.001600 μM): 15.9%
- inhibition at 0.008 µM (KATO III cells; 0.008000 μM): 51.5%
- inhibition at 0.04 µM (KATO III cells; 0.040000 μM): 67.9%
- inhibition at 0.2 µM (KATO III cells; 0.200000 μM): 74.8%
- inhibition at 1 µM (KATO III cells; 1.000000 μM): 74.7%
- inhibition at 5 µM (KATO III cells; 5.000000 μM): 72.3%
- inhibition at 64 pM (Hep G2 cells; 0.000064 μM): 1.97%
- inhibition at 0.00032 µM (Hep G2 cells; 0.000320 μM): 14.1%
- inhibition at 0.0016 µM (Hep G2 cells; 0.001600 μM): 66.9%
- inhibition at 0.008 µM (Hep G2 cells; 0.008000 μM): 79.3%
- inhibition at 0.04 µM (Hep G2 cells; 0.040000 μM): 87.1%
- inhibition at 0.2 µM (Hep G2 cells; 0.200000 μM): 87.3%
- inhibition at 1 µM (Hep G2 cells; 1.000000 μM): 85.7%
- inhibition at 5 µM (Hep G2 cells; 5.000000 μM): 81.1%
- inhibition at 64 pM (Hep 3B2.1-7 cells; 0.000064 μM): 77.5%
- inhibition at 0.00032 µM (Hep 3B2.1-7 cells; 0.000320 μM): 90.6%
- inhibition at 0.0016 µM (Hep 3B2.1-7 cells; 0.001600 μM): 90.2%
- inhibition at 0.008 µM (Hep 3B2.1-7 cells; 0.008000 μM): 90.4%
- inhibition at 0.04 µM (Hep 3B2.1-7 cells; 0.040000 μM): 90.7%
- inhibition at 0.2 µM (Hep 3B2.1-7 cells; 0.200000 μM): 89.6%
- inhibition at 1 µM (Hep 3B2.1-7 cells; 1.000000 μM): 90.5%
- inhibition at 5 µM (Hep 3B2.1-7 cells; 5.000000 μM): 88.8%

Reference: patent US20250213701A1, “MEDICAMENT FOR TREATING HUMAN TUMOR BASED ON ERF3A-TARGETING PROTEOLYSIS MECHANISM” (SUZHOU DEGEN BIO-MEDICAL CO., LTD., priority 2022, published 2025)
